Where two headings read alike, the source gives them in different places.
Key:
Format in all cases: cell-based
[1] = target: T1, hGCGR (Homo sapiens, UniProt P47871); assay: Functional cAMP formation (HTRF) in HEK-293 clonal cells expressing hGCGR, 0.1% bovine casein, without or with 1.0% human serum albumin; conditions: geometric mean
T1 construct: expressed in transfected cells
Summary of the method: (§1)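 Cells were stimulated with peptide for 30 min at 37° C, then lysed in buffer carrying cAMP-d2 and anti-cAMP Eu3+-cryptate for a competitive HTRF read after at least 60 min at room temperature. The 665/620 nm ratio was converted to nM cAMP against a standard curve.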

[2] = target: T2, hGIPR (Homo sapiens, UniProt P48546); assay: Functional cAMP formation (HTRF) in HEK-293 clonal cells expressing hGIPR, 0.1% bovine casein, without or with 1.0% human serum albumin; conditions: for EC50: geometric mean
T2 construct: expressed in transfected cells
T2 sequence (P48546 22-466): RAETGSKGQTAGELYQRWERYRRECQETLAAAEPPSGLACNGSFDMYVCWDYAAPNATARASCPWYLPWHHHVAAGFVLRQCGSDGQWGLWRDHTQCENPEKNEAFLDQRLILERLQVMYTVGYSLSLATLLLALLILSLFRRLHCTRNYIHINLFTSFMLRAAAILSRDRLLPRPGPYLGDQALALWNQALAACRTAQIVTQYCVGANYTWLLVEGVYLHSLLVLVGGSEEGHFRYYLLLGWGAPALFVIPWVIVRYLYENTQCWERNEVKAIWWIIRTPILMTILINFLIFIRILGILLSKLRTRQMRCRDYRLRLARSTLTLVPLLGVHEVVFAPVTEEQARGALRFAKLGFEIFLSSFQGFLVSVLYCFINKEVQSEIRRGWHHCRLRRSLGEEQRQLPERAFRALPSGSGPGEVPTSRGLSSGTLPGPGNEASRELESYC
Summary of the method: as §1

[3] = target: hGLP-1R (Homo sapiens, UniProt P43220); assay: Functional cAMP formation (HTRF) in HEK-293 clonal cells expressing hGLP-1R, 0.1% bovine casein, without or with 1.0% human serum albumin; design: expressed in transfected cells; conditions: for EC50: cAMP, incubated at 37° C., 0.1% bovine casein (no human serum albumin), geometric mean
Summary of the method: as §1

[4] = hGCGR EC50, nM (SEM, n), cAMP, incubated at 37° C., 0.1% bovine casein (no human serum albumin)
[5] = hGIPR EC50, nM (SEM, n), cAMP, incubated at 37° C., 0.1% bovine casein (no human serum albumin)
[6] = 0.1% bovine casein and 1.0% human serum albumin, 37° C., read-out: hGCGR EC50, nM (SEM, n)
[7] = HEK293, 0.1% bovine casein and 1.0% human serum albumin, 37° C., percent of maximal response to GIP(1-42)NH2, read-out: hGIPR Emax, % ± SEM

T1 sequence (P47871 26-477): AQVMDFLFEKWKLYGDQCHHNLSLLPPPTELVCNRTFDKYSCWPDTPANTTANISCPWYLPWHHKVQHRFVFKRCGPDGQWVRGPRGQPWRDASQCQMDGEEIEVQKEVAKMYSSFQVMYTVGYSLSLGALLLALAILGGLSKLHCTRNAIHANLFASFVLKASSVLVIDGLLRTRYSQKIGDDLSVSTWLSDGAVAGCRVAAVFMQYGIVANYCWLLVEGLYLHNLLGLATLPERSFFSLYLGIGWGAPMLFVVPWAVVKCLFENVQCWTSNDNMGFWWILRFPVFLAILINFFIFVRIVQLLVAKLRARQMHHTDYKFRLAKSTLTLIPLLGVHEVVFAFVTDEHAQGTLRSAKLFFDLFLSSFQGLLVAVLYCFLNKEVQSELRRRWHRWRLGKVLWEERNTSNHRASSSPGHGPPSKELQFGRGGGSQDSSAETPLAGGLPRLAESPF
hGLP-1R, sequence (P43220 24-463): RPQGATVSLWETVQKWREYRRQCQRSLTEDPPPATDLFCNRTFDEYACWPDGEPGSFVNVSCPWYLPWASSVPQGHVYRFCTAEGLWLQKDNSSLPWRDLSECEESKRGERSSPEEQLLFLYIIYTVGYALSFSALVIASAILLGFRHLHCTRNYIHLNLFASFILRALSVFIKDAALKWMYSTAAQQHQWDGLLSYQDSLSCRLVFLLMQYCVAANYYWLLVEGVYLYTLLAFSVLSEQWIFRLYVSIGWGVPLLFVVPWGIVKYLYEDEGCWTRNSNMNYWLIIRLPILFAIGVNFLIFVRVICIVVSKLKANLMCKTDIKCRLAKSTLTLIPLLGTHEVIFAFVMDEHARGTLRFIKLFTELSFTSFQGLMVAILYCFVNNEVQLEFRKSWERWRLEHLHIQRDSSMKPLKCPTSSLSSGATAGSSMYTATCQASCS

Compound `CC[C@H](C)[C@H](NC(=O)[C@H](CC(C)C)NC(=O)[C@](C)(Cc1ccc(O)cc1)NC(=O)[C@@H](CCC(=O)O)NC(=O)[C@@H](NC(=O)[C@H](Cc1ccccc1)NC(=O)[C@H](CCCCNC(=O)COCCOCCNC(=O)COCCOCCNC(=O)CC[C@H](NC(=O)CCCCCCCCCOc1ccc(C(=O)O)cc1)C(=O)O)NC(=O)C(C)(C)NC(=O)[C@H](CCC(N)=O)NC(=O)[C@H](C)NC(=O)[C@H](CCCCNC(=O)COCCOCCNC(=O)COCCOCCNC(=O)CC[C@H](NC(=O)CCCCCCCCCOc1ccc(C(=O)O)cc1)C(=O)O)NC(=O)[C@H](CCCN)NC(=O)[C@H](CC(=O)O)NC(=O)[C@H](CC(C)C)NC(=O)[C@](C)(CC(C)C)NC(=O)[C@@H](NC(=O)C(C)(C)NC(=O)[C@H](Cc1ccncc1)NC(=O)[C@H](CC(=O)O)NC(=O)[C@H](CO)NC(=O)[C@@H](NC(=O)[C@](C)(Cc1ccccc1F)NC(=O)[C@@H](NC(=O)CNC(=O)[C@H](CCC(=O)O)NC(=O)C(C)(C)NC(=O)[C@@H](N)Cc1ccc(O)cc1)[C@@H](C)O)[C@@H](C)O)[C@@H](C)CC)[C@@H](C)CC)C(=O)N[C@@H](CCC(=O)O)C(=O)NCC(=O)NCC(=O)N1CCC[C@H]1C(=O)N[C@@H](CO)C(=O)N[C@@H](CO)C(=O)NCC(=O)N[C@@H](C)C(=O)N1CCC[C@H]1C(=O)N1CCC[C@H]1C(=O)N1CCC[C@H]1C(=O)N[C@@H](CO)C(N)=O` [Example 243] has an EC50 ([1]; hGCGR EC50, nM (SEM, n), 0.1% bovine casein and 1.0% human serum albumin, 37° C.) of over 9950 nM, an EC50 [1, 4] of over 9950 nM and an Emax ([2]; HEK293, read-out: hGIPR Emax, % ± SEM, 0.1% bovine casein and 1.0% human serum albumin, 37° C., percent of maximal response to GIP(1-42)NH2) of 90.5%. The EC50 ([2]; hGIPR EC50, nM (SEM, n), 0.1% bovine casein and 1.0% human serum albumin, 37° C.) was 0.728 nM, the EC50 [2, 5] was 0.0154 nM and the Emax ([3]; HEK293, read-out: hGLP-1R Emax, % ± SEM, 0.1% bovine casein and 1.0% human serum albumin, 37° C., percent of maximal response to GLP-1(7-36)NH2) was 114%. It also gave an Emax ([3]; HEK293, read-out: hGLP-1R Emax, % ± SEM, percent of maximal response to GLP-1(7-36)NH2, 37° C., 0.1% bovine casein, arithmetic mean) of 93.2% and an EC50 ([3]; hGLP-1R EC50, nM (SEM, n)) of 0.86 nM.
With `CC[C@H](C)[C@H](NC(=O)[C@H](CC(C)C)NC(=O)[C@](C)(Cc1ccc(O)cc1)NC(=O)[C@@H](CCC(=O)O)NC(=O)[C@@H](NC(=O)[C@H](Cc1ccccc1)NC(=O)[C@H](CCC(=O)O)NC(=O)C(C)(C)NC(=O)[C@H](CCC(N)=O)NC(=O)[C@H](C)NC(=O)[C@H](CCCCNC(=O)COCCOCCNC(=O)COCCOCCNC(=O)COCCOCCNC(=O)CC[C@H](NC(=O)CCCCCCCCCCCCC(=O)O)C(=O)O)NC(=O)[C@H](CCCN)NC(=O)[C@H](CC(=O)O)NC(=O)[C@H](CC(C)C)NC(=O)[C@](C)(CC(C)C)NC(=O)[C@@H](NC(=O)[C@H](CO)NC(=O)[C@H](Cc1ccncc1)NC(=O)[C@H](CC(=O)O)NC(=O)[C@H](CO)NC(=O)[C@@H](NC(=O)[C@](C)(Cc1ccccc1F)NC(=O)[C@@H](NC(=O)CNC(=O)[C@H](CCC(=O)O)NC(=O)C(C)(C)NC(=O)[C@@H](N)Cc1ccc(O)cc1)[C@@H](C)O)[C@@H](C)O)[C@@H](C)CC)[C@@H](C)CC)C(=O)N[C@@H](CCCCNC(=O)COCCOCCNC(=O)COCCOCCNC(=O)COCCOCCNC(=O)CC[C@H](NC(=O)CCCCCCCCCCCCC(=O)O)C(=O)O)C(=O)NCC(=O)NCC(=O)N1CCC[C@H]1C(=O)N[C@@H](CO)C(=O)N[C@@H](CO)C(=O)NCC(=O)N[C@@H](C)C(=O)N1CCC[C@H]1C(=O)N1CCC[C@H]1C(=O)N1CCC[C@H]1C(=O)N[C@@H](CO)C(N)=O` [Example 224] the EC50 [1, 6] was over 9950 nM, the EC50 ([1]; cAMP, incubated at 37° C., 0.1% bovine casein (no human serum albumin), read-out: hGCGR EC50, nM (SEM, n)) was over 9950 nM and the EC50 ([2]; 0.1% bovine casein and 1.0% human serum albumin, 37° C., read-out: hGIPR EC50, nM (SEM, n)) was 2.92 nM. The Emax [2, 7] was 90.6%, the Emax ([2]; HEK293, percent of maximal response to GIP(1-42)NH2, 37° C., 0.1% bovine casein, arithmetic mean, read-out: hGIPR Emax, % ± SEM) was 109% and the Emax ([3]; HEK293, percent of maximal response to GLP-1(7-36)NH2, 37° C., 0.1% bovine casein, arithmetic mean, read-out: hGLP-1R Emax, % ± SEM) was 88.4%. The EC50 ([3]; read-out: hGLP-1R EC50, nM (SEM, n)) was 7.51 nM.
In the case of `CC[C@H](C)[C@H](NC(=O)[C@H](CCCN)NC(=O)[C@H](CC(=O)O)NC(=O)[C@H](CC(C)C)NC(=O)[C@](C)(CC(C)C)NC(=O)[C@@H](NC(=O)[C@H](CO)NC(=O)[C@H](Cc1ccc2ccccc2c1)NC(=O)[C@H](CC(=O)O)NC(=O)[C@H](CO)NC(=O)[C@@H](NC(=O)[C@](C)(Cc1ccccc1F)NC(=O)[C@@H](NC(=O)CNC(=O)[C@H](CCC(=O)O)NC(=O)C(C)(C)NC(=O)[C@@H](N)Cc1ccc(O)cc1)[C@@H](C)O)[C@@H](C)O)[C@@H](C)CC)C(=O)N[C@@H](C)C(=O)N[C@@H](CCC(N)=O)C(=O)NC(C)(C)C(=O)N[C@@H](CCCCNC(=O)COCCOCCNC(=O)COCCOCCNC(=O)CC[C@H](NC(=O)CCCCCCCCCCCCC(=O)O)C(=O)O)C(=O)N[C@@H](Cc1ccccc1)C(=O)N[C@H](C(=O)N[C@H](CCC(=O)O)C(=O)N[C@@](C)(Cc1ccc(O)cc1)C(=O)N[C@@H](CC(C)C)C(=O)N[C@H](C(=O)N[C@@H](CCC(=O)O)C(=O)NCC(=O)NCC(=O)N1CCC[C@H]1C(=O)N[C@@H](CO)C(=O)N[C@@H](CO)C(=O)NCC(=O)N[C@@H](C)C(=O)N1CCC[C@H]1C(=O)N1CCC[C@H]1C(=O)N1CCC[C@H]1C(=O)N[C@@H](CO)C(=O)N[C@@H](CCCCNC(=O)COCCOCCNC(=O)COCCOCCNC(=O)CC[C@H](NC(=O)CCCCCCCCCCCCC(=O)O)C(=O)O)C(N)=O)[C@@H](C)CC)[C@@H](C)CC` [Example 254], the EC50 [1, 6] is reported as over 9950 nM, the EC50 ([1]; cAMP, 37° C., 0.1% bovine casein (no human serum albumin), read-out: hGCGR EC50, nM (SEM, n)) is reported as over 9950 nM and the Emax [2, 7] is reported as 68.5%. It also gave an Emax ([2]; HEK293, cAMP, 37° C., 0.1% bovine casein, percent of maximal response to GIP(1-42)NH2, arithmetic mean, read-out: hGIPR Emax, % ± SEM) of 98.2% and an Emax ([3]; HEK293, 0.1% bovine casein and 1.0% human serum albumin, 37° C., percent of maximal response to GLP-1(7-36)NH2, read-out: hGLP-1R Emax, % ± SEM) of 122%.
With `CC[C@H](C)[C@H](NC(=O)[C@H](CC(C)C)NC(=O)C(C)(Cc1ccc(O)cc1)NC(=O)[C@H](CCCCNC(=O)[C@@H](N)CCCCNC(=O)CC[C@H](NC(=O)CCCCCCCCCCCCC(=O)O)C(=O)O)NC(=O)[C@@H](NC(=O)[C@H](Cc1ccccc1)NC(=O)[C@H](CCC(=O)O)NC(=O)C(C)(C)NC(=O)[C@H](CCC(N)=O)NC(=O)[C@H](C)NC(=O)[C@H](CCCCNC(=O)[C@@H](N)CCCCNC(=O)CC[C@H](NC(=O)CCCCCCCCCCCCC(=O)O)C(=O)O)NC(=O)[C@H](CCCN)NC(=O)[C@H](CC(=O)O)NC(=O)[C@H](CC(C)C)NC(=O)C(C)(CC(C)C)NC(=O)[C@@H](NC(=O)[C@H](CO)NC(=O)[C@H](Cc1ccncc1)NC(=O)[C@H](CC(=O)O)NC(=O)[C@H](CO)NC(=O)[C@@H](NC(=O)C(C)(Cc1ccccc1F)NC(=O)[C@@H](NC(=O)CNC(=O)[C@H](CCC(=O)O)NC(=O)C(C)(C)NC(=O)[C@@H](N)Cc1ccc(O)cc1)[C@@H](C)O)[C@@H](C)O)[C@@H](C)CC)[C@@H](C)CC)C(=O)N[C@@H](CCC(=O)O)C(=O)NCC(=O)NCC(=O)N1CCC[C@H]1C(=O)N[C@@H](CO)C(=O)N[C@@H](CO)C(=O)NCC(=O)N[C@@H](C)C(=O)N1CCC[C@H]1C(=O)N1CCC[C@H]1C(=O)N1CCC[C@H]1C(=O)N[C@@H](CO)C(N)=O` (stereo partly drawn) [Example 161] the EC50 [1, 4] was over 9950 nM, the Emax ([2]; HEK293, read-out: hGIPR Emax, % ± SEM, percent of maximal response to GIP(1-42)NH2, 37° C., 0.1% bovine casein, arithmetic mean) was 94.6 ± 1.21% and the EC50 [2, 5] was 0.0207 nM. The EC50 ([3]; hGLP-1R EC50, nM (SEM, n)) was 0.203 nM.
